From patent publication US6800618B2, “Chemosensitizing agents against chloroquine resistant plasmodium falciparum and methods of making and using thereof” (The United States of America as represented by the …, priority 2001, dated 2004)

Tests used:
RCS = assay: FIC index in RCS isolate; format: cell-based, Plasmodium falciparum; design: key: 1.0 = additive; <1.0 synergy; >1.0 antagonism; conditions: isolate from Brazil; same method as for W-2
Procedure: (§1) Fifty percent inhibitory concentrations (IC50s) were determined for each candidate compound alone and for candidate compounds in fixed combinations of their respective IC50s (1:1, 1:3, 3:1). […] See Elion, G. V., et al. (1954) J Biol Chem 208:477-488, which is herein incorporated by reference. The FIC is the actual IC50 of one compound in the presence of a second compound but is expressed as a fraction of its IC50 when used alone. This index is a mathematical representation of the isobologram such that an FIC index of 1.0 represents the line of additive on the isobologram. An FIC index of less than 1.0 represents synergy or potentiation and an FIC index of greater than 1.0 represents antagonism.
(§2) Parasites from different regions responded differently to the compounds of the present invention. The same assay method described above for W-2 was used except that the strains used were isolated from Thailand, Brazil, and Peru, respectively.

TM91C235 = assay: FIC index in TM91C235 isolate; format: cell-based, Plasmodium falciparum; design: key: 1.0 = additive; <1.0 = synergy; >1.0 = antagonism; conditions: isolate from Southeast Asia (Thailand); same method as for W-2
Procedure: Fifty percent inhibitory concentrations (IC50s) were determined for each candidate compound alone and for candidate compounds in fixed combinations of their respective IC50s (1:1, 1:3, 3:1). […] The FIC is the actual IC50 of one compound in the presence of a second compound but is expressed as a fraction of its IC50 when used alone. This index is a mathematical representation of the isobologram such that an FIC index of 1.0 represents the line of additive on the isobologram. An FIC index of less than 1.0 represents synergy or potentiation and an FIC index of greater than 1.0 represents antagonism.
The same assay method described above for W-2 was used except that the strains used were isolated from Thailand, Brazil, and Peru, respectively.

TM91C235 cells = assay: In vitro reversal activity (cell growth suppression, 3H-hypoxanthine incorporation) in TM91C235 cells; format: cell-based, Plasmodium falciparum; conditions: for Control % sup: test compounds only; for restoring the drug sensitivity of the mefloquine resistant cell line: coadministration with mefloquine
Text: For quantitative in vitro drug susceptibility testing, two well characterized P. falciparum clones, W2 and D6, were used. See Oduola et al. (1988) Exp Parasitol 66:86-95, which is herein incorporated by reference. W2 is a clone of the Indochina I isolate and is resistant to chloroquine and pyrimethamine, but susceptible to mefloquine. D6 is a clone from the Sierra I/UNC isolate and is susceptible to chloroquine and pyrimethamine, but has reduced susceptibilities to mefloquine and halofantrine. TM91C235 was isolates from Thailand and is highly resistant to mefloquine, chloroquine, and quinine.
The in vitro antimalarial drug susceptibility assay used is a modification of the procedures first published by Desjardins, et al. with modifications developed by Milhous, et al. See Desjardins, R. E., et al. (1979) Antimicrobial Agents Chemother 16:710-718; and Milhous, et al. (1985) Antimicrobial Agents Chemother 27:525-530, which are herein incorporated by reference. In brief, the assay is based on the incorporation of radiolabeled hypoxanthine by the parasites and inhibition of isotope incorporation is attributed to activity of known or candidate antimalarial drugs. For each assay, proven antimalarials, such as chloroquine, mefloquine, quinine, artemisinin, pyrimethamine and sulfadoxine, were used as controls. The incubation period was 66 hours and the starting parasitemia was 0.2% with a 1% hematocrit. The media used was RPMI-1640 culture media with no folate or p-aminobenzoic acid (PABA). Albumax may be used instead of 10% normal heat inactivated human plasma.
If a candidate compound was tested without any prior knowledge of its activity or solubility, the compound was dissolved directly in dimethylsulfoxide (DMSO) and diluted 400 fold with complete culture media. These unknown compounds were normally started at a highest concentration of about 50,000 ng/ml. The compounds were then diluted 2-fold, 11 times, to give a concentration range of about 1,048-fold. These dilutions were performed automatically by a Biomek 1000 or 2000 Liquid Handling System into 96-well microtiter plates.
(§3) 25 μl of each diluted candidate compound was then transferred to test plates, 200 μl of parasitized erythrocytes (0.2% parasitemia and 1% hematocrit) were added, and incubated at 37° C. in a controlled environment of 5% CO2, 5% O2 and 90% N2. After 42 hours, 25 μl of ^3H-hypoxanthine was added and the plates were incubated for an additional 24 hours. At the end of the 66 hour incubation period, the plates were frozen at −70° C. to lyse the red cells and later thawed and harvested onto glass fiber filter mats by using a 96-well cell harvester. The filter mats were then counted in a scintillation counter and the data was analyzed.
Each of these test compounds were tested under three different concentrations, 5000, 500, and 50 ng/ml, in the presence of 10 ng/ml of chloroquine and 5 ng/ml of mefloquine. […] Thus, the compounds of the present invention may be used to treat, prevent or inhibit drug resistant malaria.

[1] = tested on: Plasmodium falciparum W2 clone; assay: FIC index with chloroquine (isobologram analysis) in W2 clone; format: cell-based; design: key: 1.0 = additive; <1.0 = synergy; >1.0 = antagonism; conditions: 1:1 combination of drug and chloroquine; chloroquine-resistant W2 clone
Procedure: In brief, the assay is based on the incorporation of radiolabeled hypoxanthine by the parasites and inhibition of isotope incorporation is attributed to activity of known or candidate antimalarial drugs. For each assay, proven antimalarials, such as chloroquine, mefloquine, quinine, artemisinin, pyrimethamine and sulfadoxine, were used as controls. The incubation period was 66 hours and the starting parasitemia was 0.2% with a 1% hematocrit. […] Albumax may be used instead of 10% normal heat inactivated human plasma.
as §3
The FIC is the actual IC50 of one compound in the presence of a second compound but is expressed as a fraction of its IC50 when used alone. This index is a mathematical representation of the isobologram such that an FIC index of 1.0 represents the line of additive on the isobologram. An FIC index of less than 1.0 represents synergy or potentiation and an FIC index of greater than 1.0 represents antagonism.
In the isobologram graphs as shown in FIGS. 1-3, the x-axis is fractional inhibitory concentration (FIC) of chloroquine and the y-axis is FIC of chemosensitizing agent. The FIC is the actual IC50 of one drug in the presence of the second drug but is expressed as a fraction of its IC50 when used alone. If the isobologram graph is a straight line, it represents an additive effect of the two drugs. If the graph forms a concave curve below the line, it indicates synergy or potentiation of the combination. Below the line means synergy or potentiation and above the line means antagonism.

Peruvian PC49 = assay: FIC index in Peruvian PC49 isolate; format: cell-based, Plasmodium falciparum; design: key: 1.0 = additive; <1.0 synergy; >1.0 antagonism; conditions: isolate from South America (Peru); same method as for W-2
Procedure: as §1, §2

[2] = test compound 50 ng/ml combined with 5 ng/ml mefloquine
[3] = test compound 50 ng/ml combined with 10 ng/ml chloroquine
[4] = test compound 500 ng/ml combined with 5 ng/ml mefloquine
[5] = test compound 500 ng/ml combined with 10 ng/ml chloroquine
[6] = test compound 5000 ng/ml combined with 5 ng/ml mefloquine
[7] = test compound 5000 ng/ml combined with 10 ng/ml chloroquine

CN(C)CCCCN1c2ccccc2Sc2ccccc21 [7a, 10-(4-Dimethylaminobutyl)phenothiazine]
FIC index RCS (RCS): 0.51 | FIC index TM91C235 (TM91C235): 0.28 | Mefloquine % SUP (TM91C235 cells; [2]): 2% | Chloroquine % sup (TM91C235 cells; [3]): 30% | Mefloquine % SUP (TM91C235 cells; [4]): 31% | Chloroquine % sup (TM91C235 cells; [5]): 97% | Mefloquine % SUP (TM91C235 cells; [6]): 92% | Chloroquine % sup (TM91C235 cells; [7]): 100% | Control % sup (TM91C235 cells; 50 ng/ml): 17% | Control % sup (TM91C235 cells; 500 ng/ml): 27% | Control % sup (TM91C235 cells; 5000 ng/ml): 92% | FIC (fractional inhibitory concentration) index [1]: 0.23

Cc1ccc(CNCCCCN2c3ccccc3Sc3ccccc32)cc1 [7c, 10-(4-Methylbenzylaminobutyl)phenothiazine]
restoring the drug sensitivity of the mefloquine resistant cell line (TM91C235 cells): not very active | Mefloquine % SUP (TM91C235 cells; [2]): 0% | Chloroquine % sup (TM91C235 cells; [3]): 14% | Mefloquine % SUP (TM91C235 cells; [4]): 0% | Chloroquine % sup (TM91C235 cells; [5]): 27% | Mefloquine % SUP (TM91C235 cells; [6]): 13% | Chloroquine % sup (TM91C235 cells; [7]): 62% | Control % sup (TM91C235 cells; 50 ng/ml): 13% | Control % sup (TM91C235 cells; 500 ng/ml): 18% | Control % sup (TM91C235 cells; 5000 ng/ml): 35%

c1ccc(CN(CCCCN2c3ccccc3Sc3ccccc32)Cc2ccccc2)cc1 [7d, 10-(4-Dibenzylaminobutyl)phenothiazine]
restoring the drug sensitivity of the mefloquine resistant cell line (TM91C235 cells): not very active | Mefloquine % SUP (TM91C235 cells; [2]): 0% | Chloroquine % sup (TM91C235 cells; [3]): 12% | Mefloquine % SUP (TM91C235 cells; [4]): 3% | Chloroquine % sup (TM91C235 cells; [5]): 16% | Mefloquine % SUP (TM91C235 cells; [6]): 9% | Chloroquine % sup (TM91C235 cells; [7]): 25% | Control % sup (TM91C235 cells; 50 ng/ml): 7% | Control % sup (TM91C235 cells; 500 ng/ml): 10% | Control % sup (TM91C235 cells; 5000 ng/ml): 22%

c1ccc2c(c1)Sc1ccccc1N2CCCCN1CCCCC1 [7f, 10-(4-Piperidin-1-yl-butyl)phenothiazine]
FIC index RCS (RCS): 0.68 | FIC index Peruvian PC49 (Peruvian PC49): 0.83 | FIC index TM91C235 (TM91C235): 0.52 | FIC (fractional inhibitory concentration) index [1]: 0.49

c1ccc2c(c1)Sc1ccccc1N2CCCCN1CCOCC1 [7g, 10-(4-Morpholin-4-yl-butyl)phenothiazine]
FIC index RCS (RCS): 0.37 | FIC index Peruvian PC49 (Peruvian PC49): 0.81 | FIC index TM91C235 (TM91C235): 0.32 | FIC (fractional inhibitory concentration) index [1]: 0.39

CN1CCN(CCCCN2c3ccccc3Sc3ccccc32)CC1 [7h, 10-[4-(4-Methyl-piperazin-1-yl)-butyl]phenothiazine]
FIC index RCS (RCS): 0.49 | FIC index Peruvian PC49 (Peruvian PC49): 0.98 | FIC index TM91C235 (TM91C235): 0.48 | FIC (fractional inhibitory concentration) index [1]: 0.4

Cc1ccc(CNCCCCN2c3ccccc3CCc3ccccc32)cc1 [7k, 5-(4-Methylbenzylaminobutyl)iminodibenzyl]
Mefloquine % SUP (TM91C235 cells; [2]): 20% | Chloroquine % sup (TM91C235 cells; [3]): 10% | Mefloquine % SUP (TM91C235 cells; [4]): 22% | Chloroquine % sup (TM91C235 cells; [5]): 20% | Mefloquine % SUP (TM91C235 cells; [6]): 41% | Chloroquine % sup (TM91C235 cells; [7]): 33% | Control % sup (TM91C235 cells; 50 ng/ml): 30% | Control % sup (TM91C235 cells; 500 ng/ml): 32% | Control % sup (TM91C235 cells; 5000 ng/ml): 60%

c1ccc(CN(CCCCN2c3ccccc3CCc3ccccc32)Cc2ccccc2)cc1 [7l, 5-(4-Dibenzylaminobutyl)iminodibenzyl]
Mefloquine % SUP (TM91C235 cells; [2]): 14% | Chloroquine % sup (TM91C235 cells; [3]): 6% | Mefloquine % SUP (TM91C235 cells; [4]): 22% | Chloroquine % sup (TM91C235 cells; [5]): 8% | Mefloquine % SUP (TM91C235 cells; [6]): 19% | Chloroquine % sup (TM91C235 cells; [7]): 13% | Control % sup (TM91C235 cells; 50 ng/ml): 11% | Control % sup (TM91C235 cells; 500 ng/ml): 17% | Control % sup (TM91C235 cells; 5000 ng/ml): 13%

c1ccc2c(c1)CCc1ccccc1N2CCCCN1CCCCC1 [7n, 5-(4-Piperidin-1-yl-butyl) iminodibenzyl]
FIC index RCS (RCS): 0.36 | FIC index Peruvian PC49 (Peruvian PC49): 0.73 | FIC index TM91C235 (TM91C235): 0.54 | FIC (fractional inhibitory concentration) index [1]: 0.45

c1ccc2c(c1)CCc1ccccc1N2CCCCN1CCOCC1 [7o, 5-(4-Morpholin-4-yl-butyl)iminodibenzyl]
FIC index RCS (RCS): 0.89 | FIC index Peruvian PC49 (Peruvian PC49): 0.78 | FIC index TM91C235 (TM91C235): 0.54 | FIC (fractional inhibitory concentration) index [1]: 0.31

CN1CCN(CCCCN2c3ccccc3CCc3ccccc32)CC1 [7p, 5-[4-(4-Methyl-piperazin-1-yl)-butyl]iminodibenzyl]
FIC index RCS (RCS): 0.66 | FIC index TM91C235 (TM91C235): 0.54 | FIC (fractional inhibitory concentration) index [1]: 0.52

CCN(CC)CCCCN(c1ccccc1)c1ccccc1 [7s, N,N-Diethyl-N′,N′-diphenyl-butane-1,4-diamine]
FIC index RCS (RCS): 0.33 | FIC index TM91C235 (TM91C235): 0.3 | FIC (fractional inhibitory concentration) index [1]: 0.48

c1ccc(N(CCCCN2CCCC2)c2ccccc2)cc1 [7t, Diphenyl-(4-pyrrolidin-1-yl-butyl)amine]
FIC index RCS (RCS): 0.37 | FIC index TM91C235 (TM91C235): 0.32 | FIC (fractional inhibitory concentration) index [1]: 0.45

CCN(CC)CCCCCN1c2ccccc2CCc2ccccc21 [7u, 5-(5-Diethylaminopentyl)iminodibenzyl]
FIC index RCS (RCS): 0.36 | FIC index Peruvian PC49 (Peruvian PC49): 0.82 | FIC index TM91C235 (TM91C235): 0.48 | FIC (fractional inhibitory concentration) index [1]: 0.44

CCN(CC)CCCCCCN1c2ccccc2CCc2ccccc21 [7w, 5-(6-Diethylaminohexyl)iminodibenzyl]
FIC index RCS (RCS): 0.72 | FIC index TM91C235 (TM91C235): 0.59 | FIC (fractional inhibitory concentration) index [1]: 0.48

CCN(CC)CCCC(C)Nc1ccnc2cc(Cl)ccc12 (stereo not shown) [chloroquine]
cell growth inhibition of TM91C235 cells by drug alone (TM91C235 cells; 10 ng/ml of chloroquine alone): did not inhibit the cell growth

OC(c1cc(C(F)(F)F)nc2c(C(F)(F)F)cccc12)C1CCCCN1 (stereo not shown) [mefloquine, reference compound]
cell growth inhibition of TM91C235 cells by drug alone (TM91C235 cells; 5 ng/ml of mefloquine alone): did not inhibit the cell growth
